Assay results reported in ChEMBL document CHEMBL1201862, “PubChem BioAssay data set” (2004).
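Following 48 hours of exposure in 96-well plates, responses at five concentrations were used to interpolate endpoints linearly. Abbreviation: GI50, concentration required for 50% inhibition of growth.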 The source made the active and inactive calls. Cut-off read from the data, not from the text of the source: active = GI50 up to about 1.1 µM and inactive = higher.

How the values were obtained:
Test in all cases: inhibition of tumour cell growth, NCI panel, 48 h
[1] = system: U-251
[2] = system: BT-549
[3] = system: M14
[4] = system: MDA-MB-435
[5] = system: A498
[6] = system: HT-29
[7] = system: UACC-62
[8] = system: SF-539
[9] = system: KM12
[10] = system: LOX IMVI
[11] = system: HL-60
[12] = system: NCI-H460
[13] = system: SF-268
[14] = system: MDA-N
[15] = system: SN12C
[16] = system: SK-MEL-28
[17] = system: NCI-H226
[18] = system: IGROV-1
[19] = system: HOP-92
[20] = system: DMS-114

| Compound | GI50 [1] | GI50 [2] | GI50 [3] | GI50 [4] | GI50 [5] | GI50 [6] | GI50 [7] | GI50 [8] | GI50 [9] | GI50 [10] | GI50 [11] | GI50 [12] | GI50 [13] | GI50 [14] | GI50 [15] | GI50 [16] | GI50 [17] | GI50 [18] | GI50 [19] | GI50 [20] |
| --- | --- | --- | --- | --- | --- | --- | --- | --- | --- | --- | --- | --- | --- | --- | --- | --- | --- | --- | --- | --- |
| Cc1c2cc[n+](C)cc2c(C)c2c1[nH]c1ccc(Cl)cc12 | 0.25 µM (active) | 1.26 µM (inactive) | 5.57 µM (inactive) | 5.98 µM (inactive) | 0.282 µM (active) | 3.34 µM (inactive) | 3.98 µM (inactive) | 0.401 µM (active) | 0.897 µM (active) | 4.67 µM (inactive) | 1.94 µM (inactive) | 4.81 µM (inactive) | 0.29 µM (active) | 7.11 µM (inactive) | 0.214 µM (active) | 2.92 µM (inactive) | 0.272 µM (active) | 1.02 µM (active) | 2.96 µM (inactive) | 0.341 µM (active) |
| CN(C)C(=S)N=C(Nc1ccccc1)Nc1ccccc1 | > 100 µM (inactive) | – | > 100 µM (inactive) | – | > 100 µM (inactive) | > 100 µM (inactive) | > 100 µM (inactive) | > 100 µM (inactive) | > 100 µM (inactive) | > 100 µM (inactive) | > 100 µM (inactive) | > 100 µM (inactive) | > 100 µM (inactive) | – | > 100 µM (inactive) | > 100 µM (inactive) | > 100 µM (inactive) | > 100 µM (inactive) | > 100 µM (inactive) | > 100 µM (inactive) |
| COc1cc([C@@H]2c3cc4c(cc3[C@@H](NCc3ccccc3)C3COC(=O)[C@@H]32)OCO4)cc(OC)c1O (stereo partly specified) | 3.71 µM (inactive) | – | 6.65 µM (inactive) | – | 6.05 µM (inactive) | 16.4 µM (inactive) | 3.83 µM (inactive) | 6 µM (inactive) | 12.8 µM (inactive) | 5.25 µM (inactive) | 2.74 µM (inactive) | 0.547 µM (active) | 7.19 µM (inactive) | – | 3.28 µM (inactive) | 25 µM (inactive) | 3.46 µM (inactive) | 21.3 µM (inactive) | 5.83 µM (inactive) | 8.41 µM (inactive) |
| COC(=O)[C@@H]1c2cc3c(c(O)c2[C@@H](OC2OC(C)C(OC)C(C)(OC)C2OC)C[C@]1(C)O)C(=O)c1c(O)cc2c(c1C3=O)O[C@H]1O[C@]2(C)[C@H](O)[C@@H](N(C)C)[C@@H]1O (stereo partly specified) | 0.00766 µM (active) | 0.0197 µM (active) | 0.0317 µM (active) | 0.0612 µM (active) | 0.000507 µM (active) | 0.00815 µM (active) | 0.00386 µM (active) | 0.0246 µM (active) | 0.0065 µM (active) | 0.00254 µM (active) | 0.0148 µM (active) | 0.00377 µM (active) | 0.00585 µM (active) | 0.0471 µM (active) | < 0.0232 µM (active) | 0.00556 µM (active) | 0.00427 µM (active) | 0.0101 µM (active) | 0.00532 µM (active) | 0.00107 µM (active) |
| CC1/C(=N\O)CC(c2ccccc2)N(C)C1c1ccccc1 (stereo unspecified) | > 100 µM (inactive) | – | > 100 µM (inactive) | – | > 100 µM (inactive) | > 100 µM (inactive) | > 100 µM (inactive) | > 100 µM (inactive) | > 100 µM (inactive) | > 100 µM (inactive) | > 100 µM (inactive) | > 100 µM (inactive) | > 100 µM (inactive) | – | > 100 µM (inactive) | > 100 µM (inactive) | > 100 µM (inactive) | > 100 µM (inactive) | > 100 µM (inactive) | > 100 µM (inactive) |
| CC(=O)[O-].[Zn+].c1ccc(/C(=N\Nc2ccccn2)c2ccccn2)cc1 | 0.281 µM (active) | – | 0.0813 µM (active) | 0.408 µM (active) | 1.74 µM (inactive) | 0.01 µM (active) | 0.182 µM (active) | 0.337 µM (active) | 0.356 µM (active) | 0.264 µM (active) | 0.00121 µM (active) | 0.31 µM (active) | 0.277 µM (active) | 0.426 µM (active) | 0.0424 µM (active) | 0.255 µM (active) | 0.0929 µM (active) | 0.0374 µM (active) | 0.381 µM (active) | 0.01 µM (active) |
| NC(=S)N/N=C/C(O[C@@H](/C=N/NC(N)=S)CO)n1cnc2c(N)ncnc21 (stereo partly specified) | > 51.2 µM (inactive) | – | > 100 µM (inactive) | – | > 100 µM (inactive) | > 62.5 µM (inactive) | > 81.7 µM (inactive) | > 100 µM (inactive) | > 100 µM (inactive) | > 100 µM (inactive) | 67 µM (inactive) | > 80.5 µM (inactive) | > 85.5 µM (inactive) | – | > 100 µM (inactive) | > 100 µM (inactive) | > 100 µM (inactive) | > 56.2 µM (inactive) | 97.5 µM (inactive) | 28.4 µM (inactive) |
| O=[N+]([O-])c1ccc(Sc2c3ccccc3nc3cc(Cl)ccc23)cc1 | > 10 µM (inactive) | – | > 10 µM (inactive) | – | > 10 µM (inactive) | > 100 µM (inactive) | > 10 µM (inactive) | > 10 µM (inactive) | > 10 µM (inactive) | > 10 µM (inactive) | 40.9 µM (inactive) | > 10 µM (inactive) | > 10 µM (inactive) | – | > 10 µM (inactive) | > 10 µM (inactive) | > 10 µM (inactive) | > 10 µM (inactive) | 65.2 µM (inactive) | > 10 µM (inactive) |
| O=C(O/N=C1/CCC/C1=C\c1ccccc1)c1ccccc1 | > 100 µM (inactive) | – | > 100 µM (inactive) | – | > 100 µM (inactive) | 40.7 µM (inactive) | > 100 µM (inactive) | > 100 µM (inactive) | > 100 µM (inactive) | 61.8 µM (inactive) | 37.8 µM (inactive) | > 10 µM (inactive) | 38.7 µM (inactive) | – | > 100 µM (inactive) | > 100 µM (inactive) | > 100 µM (inactive) | > 100 µM (inactive) | > 100 µM (inactive) | 35 µM (inactive) |
| CN1CCN(Cc2nc3cccc4c3c([n+]2[O-])-c2ccccc2-4)CC1 | 20 µM (inactive) | 39 µM (inactive) | 23.2 µM (inactive) | 15.6 µM (inactive) | 15.8 µM (inactive) | 12.4 µM (inactive) | 24.9 µM (inactive) | 25.4 µM (inactive) | 27.4 µM (inactive) | 16.7 µM (inactive) | 33.1 µM (inactive) | 17.8 µM (inactive) | 17.9 µM (inactive) | 12.6 µM (inactive) | 11.7 µM (inactive) | 31.7 µM (inactive) | 26.8 µM (inactive) | 32.5 µM (inactive) | 36 µM (inactive) | 44.4 µM (inactive) |
